# Legend:
# PPARγ LBD = target: T1, PPARγ LBD (Homo sapiens, UniProt P37231); assay: SPR on immobilized PPARγ LBD; format: binding
# T1 construct: Recombinant human PPARγ-LBD, consisting of the region 195–477 of PPARγ; purchased Bertin-Pharma
# T1 sequence (P37231 195-477 isoform P37231-2): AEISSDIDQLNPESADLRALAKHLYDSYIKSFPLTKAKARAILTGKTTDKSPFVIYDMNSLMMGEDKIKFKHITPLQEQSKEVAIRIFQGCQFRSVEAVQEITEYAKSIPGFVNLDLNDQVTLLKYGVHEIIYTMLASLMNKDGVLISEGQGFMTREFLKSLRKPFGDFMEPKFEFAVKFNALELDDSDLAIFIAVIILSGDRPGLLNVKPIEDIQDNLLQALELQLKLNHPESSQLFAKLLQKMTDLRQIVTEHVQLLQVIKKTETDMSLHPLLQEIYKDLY
# Description: Conversely, no affinity of the diterpene towards Hsp60 was observed (Fig. 2c).
# SPR analyses were carried out on a BIACORE 3000 instrument (GE-Healthcare). PPARα, PPARγ, PPARδ and HSP60 surfaces were prepared on research−grade CM5 sensor chips (GE Healthcare). Proteins (100 μg/ml in 10 mM CH3COONa, pH 5.0) were immobilized using a standard amine−coupling protocol, to obtain densities of 3–5 kRU. Testing compounds were dissolved in 100% DMSO to obtain 4 mM solutions, and then diluted in PBS containing variable amounts of DMSO, achieving a final DMSO concentration of 0.1%. For each molecule a five−point concentration series (25 nM, 65 nM, 150 nM, 400 nM, 1 μM) was set up. SPR experiments and data elaboration were carried out as reported elsewhere.
# wild-type PPARγ1 = target: T2, wild-type PPARγ1 (Homo sapiens, UniProt P37231); assay: PPRE-luciferase transactivation in HEK293T cells co-transfected with wild-type PPARγ1; format: cell-based; settings: wild type receptor, 24 h
# T2 construct: expressed in transfected cells; host or cells: HEK293T (transient); vectors from Takuma Shiraki
# T2 sequence (P37231 1-477 isoform P37231-2): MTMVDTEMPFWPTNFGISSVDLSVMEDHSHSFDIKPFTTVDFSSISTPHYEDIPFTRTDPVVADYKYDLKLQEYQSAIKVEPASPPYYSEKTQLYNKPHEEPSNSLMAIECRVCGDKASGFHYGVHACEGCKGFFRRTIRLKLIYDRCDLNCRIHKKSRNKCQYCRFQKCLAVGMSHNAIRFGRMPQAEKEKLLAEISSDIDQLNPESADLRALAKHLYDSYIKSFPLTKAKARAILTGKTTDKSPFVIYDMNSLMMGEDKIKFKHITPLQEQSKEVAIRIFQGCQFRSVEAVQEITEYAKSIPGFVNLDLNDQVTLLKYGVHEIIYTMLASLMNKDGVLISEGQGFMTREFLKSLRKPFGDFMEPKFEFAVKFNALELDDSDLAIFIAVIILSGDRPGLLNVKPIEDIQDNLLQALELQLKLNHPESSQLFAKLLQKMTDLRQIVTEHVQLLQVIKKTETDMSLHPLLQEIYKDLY
# Description: Luciferase activity is reported as fold-induction after normalization to β-galactosidase activity used as control for transfection efficiency. […] (b) Human HEK293T cells were co-transfected with the PPRE-luciferase reporter gene and the wild-type PPARγ1 or its mutant version (C285A). […] Luciferase activity is reported as fold-induction after normalization to β-galactosidase activity used as control for transfection efficiency.
# To this goal we transiently transfected basal HEK293T cells with the PPRE-TK-luciferase-reporter plasmid along with the expression vector for the wild-type PPARγ1 or the mutant version carrying the C285A substitution.
# HEK293 cells that stably express an exogenous Flag-tagged PPARγ from a transfected PCDNA-3 vector carrying a complete PPARγ cDNA were used for transfection experiments. The PPRE-Luc plasmid contains a luciferase reporter gene under the transcriptional control of three copies of the PPRE (Peroxisome Proliferator Response Element) derived from Acyl-CoA oxidase gene fused upstream to the herpes simplex thymidine kinase (TK) promoter, as described. The RSV-βGal plasmid, expressing β-galactosidase gene, driven by the strong Rous Sarcoma Virus (RSV) promoter/cassette was used as an internal control for transfection efficiency. Transient transfection assays were carried out as described in ref. [44]. […]
# PPARγ1 = target: T3, PPARγ1 (Homo sapiens, UniProt P37231); assay: PPRE-luciferase transactivation in HEK293 cells stably expressing exogenous PPARγ; format: cell-based
# T3 construct: from a transfected PCDNA-3 vector carrying a complete PPARγ cDNA; expressed in transfected cells
# T3 sequence (P37231 1-477 isoform P37231-2): T2 sequence (P37231 1-477 isoform P37231-2)
# Description: These cells were selected as they express a fixed and known amount of PPARγ, so that the differences in luciferase activity can be ascribed to the different ligand used. […] (b) Human HEK293T cells were co-transfected with the PPRE-luciferase reporter gene and the wild-type PPARγ1 or its mutant version (C285A).
# HEK293 cells that stably express an exogenous Flag-tagged PPARγ from a transfected PCDNA-3 vector carrying a complete PPARγ cDNA were used for transfection experiments. The PPRE-Luc plasmid contains a luciferase reporter gene under the transcriptional control of three copies of the PPRE (Peroxisome Proliferator Response Element) derived from Acyl-CoA oxidase gene fused upstream to the herpes simplex thymidine kinase (TK) promoter, as described. […] Transient transfection assays were carried out as described in ref. [44]. […] In this case, the experiments were carried out into basal HEK293T cells and the RSV-β-Gal plasmid was used as control for transfection efficiency. […] The wild type and mutant PPARγ containing expression vectors were kindly provided by Dott. Takuma Shiraki. At least three independent experiments were performed for each transfection carried out in duplicate. Luciferase activity was normalized to β-galactosidase activity and reported as fold-induction.
compound,measurement,setting,value
"C=C1C(=O)C23CCC4C(C(=O)OC)CC(O)CC4(C)C2CCC1C3 (stereo not drawn) [Compound 1, 15-ketoatractyligenin methyl ester]",Kd,PPARγ LBD,39.2 ± 3.9 nM
same,luciferase activity less than Rosiglitazone,wild-type PPARγ1,40%
same,effect of detergent on transactivation activity profile,PPARγ1; 0.001% Tween 20 in the medium,not find any variation in the bell-shaped activity profile
same,concentration at peak of luciferase activity,"PPARγ1; 24 h treatment, HEK293 stably expressing PPARγ",1 µM
same,transactivation activity lower than Rosiglitazone,"PPARγ1; 24 h treatment, relative to Rosiglitazone",about 40%
same,type of PPARγ agonism,PPARγ1; transactivation assay,partial agonist

# Source: publication PMC5259791 (Scientific Reports, 2017)
